Assay results as given in patent US20220274954A1, “SUBSTITUTED N-PHENYL-N-AMINOUARCILS AND SALTS THEREOF AND USE THEREOF AS HERBICIDAL AGENTS” (Bayer Aktiengesellschaft, priority 2019, published 2022).

Assays:
Format in all cases: in vivo
Oryza sativa = assay: Post-emergence crop plant compatibility
Experimental: (§1) Seeds of monocotyledonous and dicotyledonous weeds and crop plants were placed in sandy loam in plastic or wood-fiber pots, covered with soil and cultivated in a greenhouse under controlled growth conditions. 2 to 3 weeks after sowing, the test plants were treated at the one-leaf stage. The compounds of the invention, formulated in the form of wettable powders (WP) or as emulsion concentrates (EC), were then sprayed onto the green parts of the plants as aqueous suspension or emulsion with addition of 0.5% additive at a water application rate of […] (converted). After the test plants had been kept in the greenhouse under optimum growth conditions for about 3 weeks, the activity of the preparations was rated visually in comparison to untreated controls. For example, 100% activity=the plants have died, 0% activity=like control plants.
(§2) Here, the observed effects on selected crop plants are stated in comparison to the untreated controls (values in %).

Triticum aestivum = assay: Post-emergence crop plant compatibility
Experimental: as §1, §2

Digitaria sanguinalis = assay: Post-emergence herbicidal action; conditions: 504 h, read-out: Digitaria sanguinalis (efficacy in %); for pest or weed control at 5 g/ha: application rate 5 g/ha; for pest or weed control at 20 g/ha: application rate 20 g/ha
Experimental: as §1, with “plants. Tables A1 to A14 below show the effects of selected compounds of the general formula (I) according to Tables I.1 to I.34 on various harmful plants and at an application rate corresponding to 20 g/ha and less, which were obtained by the experimental procedure mentioned above.” for “plants.”

Pharbitis purpurea = assay: Post-emergence herbicidal action; conditions: for pest or weed control at 5 g/ha / pest or weed control at 20 g/ha: Ipomoea purpurea, 504 h, read-out: Pharbitis purpurea (efficacy in %)
Experimental: as §1, with “plants. Tables A1 to A14 below show the effects of selected compounds of the general formula (I) according to Tables I.1 to I.34 on various harmful plants and at an application rate corresponding to 20 g/ha and less, which were obtained by the experimental procedure mentioned above.” for “plants.”

Veronica persica = assay: Post-emergence herbicidal action; conditions: for pest or weed control at 5 g/ha / pest or weed control at 20 g/ha: Veronica persica, 504 h, read-out: Veronica persica (efficacy in %)
Experimental: as §1, with “plants. Tables A1 to A14 below show the effects of selected compounds of the general formula (I) according to Tables I.1 to I.34 on various harmful plants and at an application rate corresponding to 20 g/ha and less, which were obtained by the experimental procedure mentioned above.” for “plants.”

Setaria viridis = assay: Post-emergence herbicidal action; conditions: 504 h, read-out: Setaria viridis (efficacy in %); for pest or weed control at 5 g/ha: application rate 5 g/ha; for pest or weed control at 20 g/ha: application rate 20 g/ha
Experimental: as §1, with “plants. Tables A1 to A14 below show the effects of selected compounds of the general formula (I) according to Tables I.1 to I.34 on various harmful plants and at an application rate corresponding to 20 g/ha and less, which were obtained by the experimental procedure mentioned above.” for “plants.”

Amaranthus retroflexus = assay: Post-emergence herbicidal action; conditions: for pest or weed control at 5 g/ha / pest or weed control at 20 g/ha: Amaranthus retroflexus, 504 h, read-out: Amaranthus retroflexus (efficacy in %)
Experimental: as §1, with “plants. Tables A1 to A14 below show the effects of selected compounds of the general formula (I) according to Tables I.1 to I.34 on various harmful plants and at an application rate corresponding to 20 g/ha and less, which were obtained by the experimental procedure mentioned above.” for “plants.”

Alopecurus myosuroides = assay: Post-emergence herbicidal action
Experimental: as §1, with “plants. Tables A1 to A14 below show the effects of selected compounds of the general formula (I) according to Tables I.1 to I.34 on various harmful plants and at an application rate corresponding to 20 g/ha and less, which were obtained by the experimental procedure mentioned above.” for “plants.”

Viola tricolor = assay: Post-emergence herbicidal action; conditions: for pest or weed control at 5 g/ha / pest or weed control at 20 g/ha: Viola tricolor, 504 h, read-out: Viola tricolor (efficacy in %)
Experimental: as §1, with “plants. Tables A1 to A14 below show the effects of selected compounds of the general formula (I) according to Tables I.1 to I.34 on various harmful plants and at an application rate corresponding to 20 g/ha and less, which were obtained by the experimental procedure mentioned above.” for “plants.”

Lolium rigidum = assay: Post-emergence herbicidal action; conditions: application rate 20 g/ha
Experimental: as §1, with “plants. Tables A1 to A14 below show the effects of selected compounds of the general formula (I) according to Tables I.1 to I.34 on various harmful plants and at an application rate corresponding to 20 g/ha and less, which were obtained by the experimental procedure mentioned above.” for “plants.”

Echinochloa crus-galli = assay: Post-emergence herbicidal action; conditions: for pest or weed control at 5 g/ha / pest or weed control at 20 g/ha: Echinochloa crus-galli, 504 h, read-out: Echinochloa crus-galli (efficacy in %)
Experimental: as §1, with “plants. Tables A1 to A14 below show the effects of selected compounds of the general formula (I) according to Tables I.1 to I.34 on various harmful plants and at an application rate corresponding to 20 g/ha and less, which were obtained by the experimental procedure mentioned above.” for “plants.”

Abutilon theophrasti = assay: Post-emergence herbicidal action; conditions: for pest or weed control at 5 g/ha / pest or weed control at 20 g/ha: Abutilon theophrasti, 504 h, read-out: Abutilon theophrasti (efficacy in %)
Experimental: as §1, with “plants. Tables A1 to A14 below show the effects of selected compounds of the general formula (I) according to Tables I.1 to I.34 on various harmful plants and at an application rate corresponding to 20 g/ha and less, which were obtained by the experimental procedure mentioned above.” for “plants.”

Matricaria inodora = assay: Post-emergence herbicidal action; conditions: for pest or weed control at 5 g/ha / pest or weed control at 20 g/ha: Tripleurospermum inodorum, 504 h, read-out: Matricaria inodora (efficacy in %)
Experimental: as §1, with “plants. Tables A1 to A14 below show the effects of selected compounds of the general formula (I) according to Tables I.1 to I.34 on various harmful plants and at an application rate corresponding to 20 g/ha and less, which were obtained by the experimental procedure mentioned above.” for “plants.”

Polygonum convolvulus = assay: Post-emergence herbicidal action; conditions: Fallopia convolvulus, 504 h, read-out: Polygonum convolvulus (efficacy in %); for pest or weed control at 5 g/ha: application rate 5 g/ha; for pest or weed control at 20 g/ha: application rate 20 g/ha
Experimental: as §1, with “plants. Tables A1 to A14 below show the effects of selected compounds of the general formula (I) according to Tables I.1 to I.34 on various harmful plants and at an application rate corresponding to 20 g/ha and less, which were obtained by the experimental procedure mentioned above.” for “plants.”

Avena fatua = assay: Post-emergence herbicidal action; conditions: application rate 20 g/ha
Experimental: as §1, with “plants. Tables A1 to A14 below show the effects of selected compounds of the general formula (I) according to Tables I.1 to I.34 on various harmful plants and at an application rate corresponding to 20 g/ha and less, which were obtained by the experimental procedure mentioned above.” for “plants.”

Zea mays = assay: Post-emergence crop plant compatibility
Experimental: as §1, §2

Glycine max = assay: Post-emergence crop plant compatibility; conditions: application rate 5 g/ha
Experimental: as §1, §2

Hordeum murinum = assay: Post-emergence herbicidal action
Experimental: as §1, with “plants. Tables A1 to A14 below show the effects of selected compounds of the general formula (I) according to Tables I.1 to I.34 on various harmful plants and at an application rate corresponding to 20 g/ha and less, which were obtained by the experimental procedure mentioned above.” for “plants.”

Stellaria media = assay: Post-emergence herbicidal action; conditions: application rate 5 g/ha
Experimental: as §1, with “plants. Tables A1 to A14 below show the effects of selected compounds of the general formula (I) according to Tables I.1 to I.34 on various harmful plants and at an application rate corresponding to 20 g/ha and less, which were obtained by the experimental procedure mentioned above.” for “plants.”

Oryza sativa (efficacy in %) (Oryza sativa; application rate 1.25 g/ha) [%]	Triticum aestivum (efficacy in %) (Triticum aestivum; application rate 1.25 g/ha) [%]	Compound	pest or weed control at 5 g/ha (Digitaria sanguinalis) [%]	pest or weed control at 20 g/ha (Digitaria sanguinalis) [%]	pest or weed control at 5 g/ha (Pharbitis purpurea; application rate 5 g/ha) [%]	pest or weed control at 20 g/ha (Pharbitis purpurea; application rate 20 g/ha) [%]	pest or weed control at 5 g/ha (Veronica persica; application rate 5 g/ha) [%]	pest or weed control at 20 g/ha (Veronica persica; application rate 20 g/ha) [%]	pest or weed control at 5 g/ha (Setaria viridis) [%]	pest or weed control at 20 g/ha (Setaria viridis) [%]	pest or weed control at 5 g/ha (Amaranthus retroflexus; application rate 5 g/ha) [%]	pest or weed control at 20 g/ha (Amaranthus retroflexus; application rate 20 g/ha) [%]	Alopecurus myosuroides (efficacy in %) (Alopecurus myosuroides; application rate 20 g/ha) [%]	pest or weed control at 5 g/ha (Viola tricolor; application rate 5 g/ha) [%]	pest or weed control at 20 g/ha (Viola tricolor; application rate 20 g/ha) [%]	Lolium rigidum (efficacy in %) (Lolium rigidum) [%]	pest or weed control at 5 g/ha (Echinochloa crus-galli; application rate 5 g/ha) [%]	pest or weed control at 20 g/ha (Echinochloa crus-galli; application rate 20 g/ha) [%]	pest or weed control at 5 g/ha (Abutilon theophrasti; application rate 5 g/ha) [%]	pest or weed control at 20 g/ha (Abutilon theophrasti; application rate 20 g/ha) [%]	also measured
0	0	CCOCCOC(=O)COc1ncccc1Sc1cc(-n2c(=O)cc(C(F)(F)F)n(N)c2=O)c(F)cc1Cl [I.1-2, 2-Ethoxyethyl {[3-({5-[3-amino-2,6-dioxo-4-(trifluoromethyl)-3,6-dihydropyrimidin-1(2H)-yl]-2-chloro-4-fluorophenyl}sulfanyl)pyridin-2-yl]oxy}acetate]	100	100	100	100	100	100	100	100	100	100	100	100	100	80	90	100	100	100	Oryza sativa (efficacy in %) (Oryza sativa; application rate 5 g/ha): 10%; pest or weed control at 5 g/ha (Matricaria inodora; application rate 5 g/ha): 100%; pest or weed control at 20 g/ha (Matricaria inodora; application rate 20 g/ha): 100%; pest or weed control at 5 g/ha (Polygonum convolvulus): 100%; pest or weed control at 20 g/ha (Polygonum convolvulus): 100%; Avena fatua (efficacy in %) (Avena fatua): 80%
20	20	COCCOCCOC(=O)COc1ncccc1Sc1cc(-n2c(=O)cc(C(F)(F)F)n(N)c2=O)c(F)cc1Cl [I.1-23, 2-(2-Methoxyethoxy)ethyl {[3-({5-[3-amino-2,6-dioxo-4-(trifluoromethyl)-3,6-dihydropyrimidin-1(2H)-yl]-2-chloro-4-fluorophenyl}sulfanyl)pyridin-2-yl]oxy}acetate]	100	100	80	100	100	100	100	100	100	100	90	100	100	80	80	100	100	100	Zea mays (efficacy in %) (Zea mays; application rate 1.25 g/ha): 20%; pest or weed control at 5 g/ha (Matricaria inodora; application rate 5 g/ha): 80%; pest or weed control at 20 g/ha (Matricaria inodora; application rate 20 g/ha): 100%; pest or weed control at 5 g/ha (Polygonum convolvulus): 100%; pest or weed control at 20 g/ha (Polygonum convolvulus): 100%; Avena fatua (efficacy in %) (Avena fatua): 100%
10	20	COC(=O)COc1ncccc1Sc1cc(-n2c(=O)cc(C(F)(F)F)n(N)c2=O)c(F)cc1Cl [I.1-441, Methyl {[3-({5-[3-amino-2,6-dioxo-4-(trifluoromethyl)-3,6-dihydropyrimidin-1(2H)-yl]-2-chloro-4-fluorophenyl}sulfanyl)pyridin-2-yl]oxy}acetate]	90	100	100	100	100	100	100	100	100	100		100	100	80	80	100	100	100	Oryza sativa (efficacy in %) (Oryza sativa; application rate 5 g/ha): 20%; Glycine max (efficacy in %) (Glycine max): 20%; Zea mays (efficacy in %) (Zea mays; application rate 1.25 g/ha): 20%; Hordeum murinum (efficacy in %) (Hordeum murinum; application rate 5 g/ha): 80%; Hordeum murinum (efficacy in %) (Hordeum murinum; application rate 20 g/ha): 100%; pest or weed control at 5 g/ha (Matricaria inodora; application rate 5 g/ha): 100%; pest or weed control at 20 g/ha (Matricaria inodora; application rate 20 g/ha): 100%; pest or weed control at 5 g/ha (Polygonum convolvulus): 80%; pest or weed control at 20 g/ha (Polygonum convolvulus): 100%; Stellaria media (efficacy in %) (Stellaria media): 100%
0	10	C=CCOC(=O)COc1ncccc1Sc1cc(-n2c(=O)cc(C(F)(F)F)n(N)c2=O)c(F)cc1Cl [I.1-471]											100			80					Triticum aestivum (efficacy in %) (Triticum aestivum; application rate 5 g/ha): 20%; Zea mays (efficacy in %) (Zea mays; application rate 5 g/ha): 20%; Pharbitis purpurea (efficacy in %) (Pharbitis purpurea; application rate 5 g/ha): 100%; Pharbitis purpurea (efficacy in %) (Pharbitis purpurea; application rate 20 g/ha): 100%; Veronica persica (efficacy in %) (Veronica persica; application rate 5 g/ha): 100%; Veronica persica (efficacy in %) (Veronica persica; application rate 20 g/ha): 100%; Amaranthus retroflexus (efficacy in %) (Amaranthus retroflexus; application rate 5 g/ha): 100%; Amaranthus retroflexus (efficacy in %) (Amaranthus retroflexus; application rate 20 g/ha): 100%; Alopecurus myosuroides (efficacy in %) (Alopecurus myosuroides; application rate 5 g/ha): 80%; Viola tricolor (efficacy in %) (Viola tricolor; application rate 5 g/ha): 100%; Viola tricolor (efficacy in %) (Viola tricolor; application rate 20 g/ha): 100%; Echinochloa crus-galli (efficacy in %) (Echinochloa crus-galli; application rate 5 g/ha): 90%; Echinochloa crus-galli (efficacy in %) (Echinochloa crus-galli; application rate 20 g/ha): 100%; Abutilon theophrasti (efficacy in %) (Abutilon theophrasti; application rate 5 g/ha): 100%; Abutilon theophrasti (efficacy in %) (Abutilon theophrasti; application rate 20 g/ha): 100%; Matricaria inodora (efficacy in %) (Matricaria inodora; application rate 5 g/ha): 100%; Matricaria inodora (efficacy in %) (Matricaria inodora; application rate 20 g/ha): 100%; Avena fatua (efficacy in %) (Avena fatua): 80%
